This is an account of results in patent publication US20150031760A1, “PHARMACEUTICAL COMPOSITION FOR PREVENTING OR TREATING NERVOUS SYSTEM DISORDERS COMPRISING SULFURETIN OR PHARMACEUTICALLY ACCEPTABLE SALT THEREOF” (Research and Business Foundation SUNGKYUNKWAN UNIVERSITY, priority 2010, published 2015).

In one test the test system is mice. Briefly: Scopolamine-induced cognitive impairment, spontaneous alternation behavior Y-maze test. It counts as in vivo. Conditions: sulfuretin 1 mg/kg, p.o., one hour before test; scopolamine 0.5 mg/kg, i.p. As for the experimental part:
Male ICR mice (4-weeks-old, 18-20 g) were purchased from Koatech Co., Ltd. (Pyongtaek, Korea). Mice were housed 10 per cage, allowed access to water and food ad libitum, and maintained in constant temperature (23±1° C.) and humidity (55±5%) conditions under a 12 hour light/dark cycle (lights on 07:00 to 19:00 h). All experiments were conducted in accord with the NIH Guide for the Care and Use of Laboratory Animals and with the approval of the Institutional Animal Care and Use Committee of Sungkyunkwan University.
The spontaneous alternation behavior was measured by Y-maze which consists of a horizontal maze (30 cm long and 5 cm wide, with walls 12 cm high) with three arms (labeled A, B, and C). The maze floor and walls are constructed of dark grey, polyvinyl plastic. Mice were initially placed within one arm, and the number of alternations (i.e., consecutive entry sequences of ABC, CAB, or BCA but not BAB) and the number of arm entries were manually recorded for each mouse over an 8 minutes period. One hour before each test, the mice were given sulfuretin (0.25, 0.5, or 1 mg/kg, p.o.). After 30 minutes, memory impairment was induced by administering scopolamine (0.5 mg/kg, i.p.). […] The percentage alternation was calculated according to the following equation: Percentage alternation=[(Number of alternations)/(Total arm entries−2)]×100. […]

The subject of a further test is phospho-JNK. As to the kind of experiment: Western blot, phospho-JNK expression. To be noted: SH-SY5Y cells. It is filed as cell-based, human. As for the experimental part: (§1) The incubator was maintained at a temperature of 37° C., and a mixed gas of 95% air and 5% CO2 was continuously supplied thereto to provide suitable conditions for cell culture. The cells were cultured in a 6-well plate or a 96-well plate at each of densities of 1×10^6 and 2×10^4 cells/well 24 hours before the experiment. […] Sulfuretin was used in ethanol and used at a final concentration of 0.1% or less.
(§2) In order to identify the effect of sulfuretin on the expression of proteins related to dementia, Alzheimer's disease, Parkinson's disease and strokes, a Western blot test was carried out.
(§3) After 24 hours, the supernatant of each well was collected and centrifuged at 400 g for 3 minutes, and the cells were washed with cold PBS and lysed with 100 μl of T-PER lysis buffer (Thermo, USA) for 30 minutes. The lysates were centrifuged at 10000 g at 4° C. for 15 minutes, and the supernatants were stored at […] until use as test samples. Proteins were quantitatively analyzed using a BCA assay kit (Thermo, USA) and separated within 8.5-12% SDS gel and then transferred to PVDF membranes. To examine the expression of the proteins, the development of fluorescence was analyzed by enhanced chemiluminescence (ECL). Specifically, the membrane was blocked with 5% skimmed non-fat milk for 1 hour and labeled with the primary antibodies, PARP, caspase-3, phospho-p38, phospho-JNK and β-actin at 4° C. overnight. Then, the membrane was washed three times with Tris-tween buffered saline (TTBS), and then labeled with horseradish peroxidase (HRP)-conjugated anti-rabbit and anti-mouse secondary antibodies at room temperature for 1 hour. Then, the membrane was washed five times with TTBS for 10 minutes. The washed film was developed by ECL using x-ray films, and concentrations were quantitatively analyzed using quantitative analysis program (Fujifilm, Japan).
Background: In western blotting, separated proteins are transferred to a membrane and probed.

The next test deals with phospho-p38. As to the kind of experiment: Western blot, phospho-p38 expression. It is filed as cell-based, human. Conditions: SH-SY5Y cells. The method, then: as §1, §2, §3
In test [1] the test system is SH-SY5Y cells. Briefly: LDH secretion (cytotoxicity) test. It is filed as cell-based, human. As for the experimental part:
as §1
To measure LDH secretion (cytotoxicity), an LDH cytotoxicity assay kit was used. 50 μl of the medium was taken from each well of the 96-well plate (in which the cells have been cultured) and dispensed into each well of a fresh 96-well plate, and 50 μl of a reaction reagent was added to each well, after which the plate was shielded from light. The plate was incubated in an incubator for 30 minutes, and the UV absorbance at 490 nm was measured using a microplate reader (Molecular device, USA).
The measured absorbance was substituted into the following equation to calculate LDH secretion:
LDH secretion (%)=(LDH secretion O.D. in medium/total LDH secretion O.D.)×100

Test [2] concerns SH-SY5Y cells. Briefly: Inhibition of intracellular [Ca2+] influx (Fura-2-AM fluorescence). Conditions: hydrogen peroxide-induced, 30 minutes pretreatment. It is filed as cell-based, human. The method, then: as §1
In order to measure inhibitory effects on intracellular [Ca^2+] influx caused by oxidative stress, cells were labeled with Fura-2-AM fluorescence, and quantitative analysis was carried out using a fluorescence meter. Specifically, 10 μl of 5 μM Fura-2-AM was added to each well of the 6-well plate (in which the cells have been cultured) and then allowed to react for 30 minutes. Herein, Fura-2-AM in the incubator was covered with a silver foil such that it would not be exposed to light. After completion of the incubation, the plate was pretreated with sulfuretin for 30 minutes, and then reacted with hydrogen peroxide for 30 minutes to induce the intracellular influx of [Ca^2+]. Then, the cells that reacted with the Fura-2-AM fluorescent substance were washed twice with cold HEPES and detached with HEPES. Then, the cells were centrifuged at 400 g for 3 minutes. The supernatant was removed carefully, stirred weakly with 0.5 ml of HEPES buffer, and then 150 μl was dispensed into each well of a fresh 96-well plate. The fluorescence of the sample dispensed into the fresh 96-well plate was measured at an excitation wavelength of […] and an emission wavelength of 520 nm using a fluorescence meter (Perkinelmer, USA).
The measured value was substituted into the following equation to calculate intracellular [Ca^2+] nM: […]

In another test the test system is SH-SY5Y and PC12 cells. Briefly: MTT (cell viability) test, SNP-induced cell death. It is filed as cell-based.
[3] abbreviates: hydrogen peroxide + sulfuretin 0.1 μg/ml.
Setting [4] is: hydrogen peroxide + sulfuretin 0.5 μg/ml.
Setting [5] is: hydrogen peroxide + sulfuretin 1 μg/ml.

As to `O=C1/C(=C/c2ccc(O)c(O)c2)Oc2cc(O)ccc21` [sulfuretin], in the test on mice, the “decrease of spontaneous alternation behavior induced by scopolamine” value is “significantly inhibited”. In addition, the phospho-JNK expression in the test with phospho-JNK (setting [3]) is recorded as at most 261%; in the test on phospho-JNK (setting [4]), at most 204%; in the test on phospho-JNK (setting [5]), at most 120%. Also, the phospho-p38 expression in the test with phospho-p38 (setting [3]) was at most 157%; with phospho-p38 (setting [4]), at most 133%; with phospho-p38 (setting [5]), at most 53%. The LDH secretion with SH-SY5Y cells [1] (beta-amyloid-induced, sulfuretin 0.1 μg/ml) is given as at most 12%; in the test on SH-SY5Y cells [1] (beta-amyloid-induced, sulfuretin 0.5 μg/ml), at most 11%; in the test on SH-SY5Y cells [1] (beta-amyloid-induced, sulfuretin 1 μg/ml), at most 11%; in the test on SH-SY5Y cells [1] (beta-amyloid-induced, sulfuretin 5 μg/ml), at most 9%; with SH-SY5Y cells [1] (hydrogen peroxide-induced, sulfuretin 0.1 μg/ml), at most 77%; in the test on SH-SY5Y cells [1] (hydrogen peroxide-induced, sulfuretin 0.5 μg/ml), at most 56%. Further, the LDH secretion with SH-SY5Y cells [1] (hydrogen peroxide-induced, sulfuretin 1 μg/ml) was at most 33%; with SH-SY5Y cells [1] (hydrogen peroxide-induced, sulfuretin 5 μg/ml) it was at most 39%. Moreover, the “intracellular [Ca2+] influx” value is listed as at most 566 nM in the test on SH-SY5Y cells [2] (sulfuretin 0.1 μg/ml), at most 395 nM in the test with SH-SY5Y cells [2] (sulfuretin 0.5 μg/ml), at most 371 nM in the test with SH-SY5Y cells [2] (sulfuretin 1 μg/ml) and at most 243 nM in the test on SH-SY5Y cells [2] (sulfuretin 5 μg/ml). For the same molecule, the viability at 0.1 µg/mL with SH-SY5Y and PC12 cells (sulfuretin 0.1 μg/ml) was at least 44%. Besides, the viability at 0.5 µg/mL in the test with SH-SY5Y and PC12 cells (sulfuretin 0.5 μg/ml) was at least 56%. Also, the viability at 1 µg/mL in the test on SH-SY5Y and PC12 cells (sulfuretin 1 μg/ml) was at least 64%. Besides, the viability at 5 µg/mL in the test on SH-SY5Y and PC12 cells (sulfuretin 5 μg/ml) is at least 163%.

The viability is a read-out of living cells in per cent, often relative to untreated cells.
